Test results published in ChEMBL document CHEMBL1124525, “Hexestrol-linked cytotoxic agents: synthesis and binding affinity for estrogen receptors” (J Med Chem, 1989).

How the values were obtained:
[1] = target: T1, Estrogen receptor (Rattus norvegicus) (UniProt P06211+Q62986); assay: Binding affinity to estrogen receptor; assay type: protein assay
[2] = target: T1, Estrogen receptor (Rattus norvegicus); assay: Relative binding affinity for estrogen receptor; assay type: protein assay

Row | Compound | relative binding affinity (RBA) [1] | relative binding affinity (RBA) [2]
1 | CC[C@@](C)(c1ccc(O)cc1)[C@H](CCCC(=O)OC)c1ccc(O)cc1 | 0.2 | –
2 | CC[C@@](C)(c1ccc(O)cc1)[C@H](CCCC=O)c1ccc(O)cc1 | 1 | –
3 | CC[C@@](C)(c1ccc(O)cc1)[C@H](CCCCBr)c1ccc(O)cc1 (relative stereo) | 1 | –
4 | CC[C@@](C)(c1ccc(O)cc1)[C@H](CCCC(=O)N(CCO)CCO)c1ccc(O)cc1 | 0.2 | –
5 | CC[C@](C)(c1ccc(O)cc1)[C@H](CCCCN(CCCl)CCCl)c1ccc(O)cc1 (relative stereo) | 2.5 | –
6 | CC[C@@](C)(c1cc(Br)c(O)c(Br)c1)[C@H](CCCCO)c1ccc(O)c(Br)c1 | 0.1 | –
7 | CC[C@@](C)(c1ccc(O)cc1)[C@H](CCCCOCCOCCO)c1ccc(O)cc1 | 1 | –
8 | CC[C@@](C)(c1ccc(O)cc1)[C@H](CCCCN)c1ccc(O)cc1 (relative stereo) | 2 | –
9 | CC[C@@](C)(c1ccc(O)cc1)[C@H](CCCC(N)=O)c1ccc(O)cc1 | 0.9 | –
10 | CC[C@@](C)(c1ccc(O)cc1)[C@H](CCCCOCCO)c1ccc(O)cc1 | 1 | –
11 | CC[C@@](C)(c1ccc(O)cc1)[C@H](CCCC(=O)NC)c1ccc(O)cc1 | 0.2 | –
12 | CC[C@@](C)(c1ccc(O)cc1)[C@H](CCCCC=O)c1ccc(O)cc1 | 1 | –
13 | CC[C@@](C)(c1ccc(O)cc1)[C@H](CCCC(=O)NCCO)c1ccc(O)cc1 | 0.1 | –
14 | CCSCCCCC(c1ccc(O)cc1)C(C)(CC)c1ccc(O)cc1 (stereo unspecified) | 0.2 | –
15 | CC[C@@](C)(c1ccc(O)cc1)[C@H](CCCCOCCOCCOCCO)c1ccc(O)cc1 | 1 | –
16 | CC[C@@](C)(c1ccc(O)cc1)[C@H](CCCCN(CCO)CCO)c1ccc(O)cc1 (relative stereo) | 0.9 | –

Row | Compound | relative binding affinity (RBA) [1] | relative binding affinity (RBA) [2]
17 | CC[C@@](C)(c1ccc(O)cc1)[C@H](CCCCCl)c1ccc(O)cc1 (relative stereo) | 1.5 | –
18 | CC[C@@](C)(c1ccc(O)cc1)[C@H](CCCCN1CCCOP1(=O)N(CCCl)CCCl)c1ccc(O)cc1 (relative stereo) | 1 | –
19 | CC[C@@](C)(c1ccc(O)cc1)[C@H](CCCCOCCCl)c1ccc(O)cc1 (relative stereo) | 0.3 | –
20 | CCCC[C@H](c1ccc(O)cc1)[C@@](C)(CC)c1ccc(O)cc1 (relative stereo) | 1 | –
21 | CC[C@@](C)(c1ccc(O)cc1)[C@H](CCCC(=O)O)c1ccc(O)cc1 | – | 0.1
22 | CC[C@@](C)(c1ccc(O)cc1)[C@H](CCCCO)c1ccc(O)cc1 (relative stereo) | 1.5 | –
23 | CC[C@@](C)(c1ccc(O)cc1)[C@H](CCCCOS(C)(=O)=O)c1ccc(O)cc1 | 0.3 | –
24 | CC[C@@](C)(c1ccc(O)cc1)[C@H](CCCCOCCOCCOCCCl)c1ccc(O)cc1 (relative stereo) | 0.5 | –
25 | CC[C@@](C)(c1ccc(O)cc1)[C@H](CCCCOC(C)=O)c1ccc(O)cc1 | 1 | –
26 | CC[C@@](C)(c1ccc(O)cc1)[C@H](CCCCSCCO)c1ccc(O)cc1 (relative stereo) | 0.4 | –
27 | CC[C@@](C)(c1ccc(O)cc1)[C@H](CCCCNC(=O)N(CCCl)N=O)c1ccc(O)cc1 | 1 | –
28 | CC[C@@](C)(c1ccc(O)cc1)[C@H](CCCCOCCOCCCl)c1ccc(O)cc1 (relative stereo) | 1 | –
29 | CC[C@@](C)(c1ccc(O)cc1)[C@H](CCCCI)c1ccc(O)cc1 (relative stereo) | 0.2 | –
30 | CC[C@](C)(c1ccc(O)cc1)[C@H](CCCCNCCCl)c1ccc(O)cc1 (relative stereo) | 1 | –
31 | C=CCCC[C@H](c1ccc(O)cc1)[C@@](C)(CC)c1ccc(O)cc1 (relative stereo) | 1 | –
